pIC50: −log10 of the molar value.
Target: T1, Recombinant human renin (Homo sapiens, UniProt P00797)
T1 construct: isolate the active form (residues 67-406); made in house; host or cells: FreeStyle 293-F cells (transient expression of pcDNA3.1(+)/hREN)
T1 sequence (P00797 67-406): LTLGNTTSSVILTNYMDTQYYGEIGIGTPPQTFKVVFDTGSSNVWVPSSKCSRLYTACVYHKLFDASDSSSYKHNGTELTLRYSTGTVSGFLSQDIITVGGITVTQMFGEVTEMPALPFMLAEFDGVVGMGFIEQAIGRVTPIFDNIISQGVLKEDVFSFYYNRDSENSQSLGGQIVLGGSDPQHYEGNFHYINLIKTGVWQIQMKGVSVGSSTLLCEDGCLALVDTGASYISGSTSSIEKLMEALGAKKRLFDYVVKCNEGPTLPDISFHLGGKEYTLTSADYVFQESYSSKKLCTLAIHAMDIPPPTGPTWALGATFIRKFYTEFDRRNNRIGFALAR
Test: In vitro enzymatic activity assay of renin inhibitors (fluorogenic peptide substrate)
Type: biochemical
Settings: read-out: IC50 of Exemplified Compounds Against Renin
In short: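 Enzyme: recombinant human renin, 3 nM final, 10 min compound pre-incubation at 37 °C; buffer 50 mM Hepes pH 7.4 with 0.1 mg/mL BSA or extra 2% BSA; 5% DMSO.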

Row | SMILES | pIC50
1 | COC(=O)[C@H](Cc1ccccc1)NC(=O)N1CCCC(c2nc3ccccc3[nH]2)C1 (stereo partly drawn) [Compound 12, (2S)-methyl 2-(3-(1H-benzo[d]imidazol-2-yl)piperidine-1-carboxamido)-3-phenylpropanoate] | < 6.00
2 | COCCCn1c([C@@H]2CCCN(C(=O)C[C@H](N)Cc3ccc(-c4ccnc(O)c4)cc3)C2)nc2c(F)cccc21 [Compound 444, (R)-3-amino-1-((R)-3-(4-fluoro-1-(3-methoxypropyl)-1H-benzo[d]imidazol-2-yl)piperidin-1-yl)-4-(4-(2-hydroxypyridin-4-yl)phenyl)butan-1-one] | > 7.00
3 | COCCCn1c([C@@H]2CCCN(C(=O)C[C@H](N)Cc3ccc(-c4cnc(N)nc4)cc3)C2)nc2c(F)cccc21 [Compound 456, (R)-3-amino-4-(4-(2-aminopyrimidin-5-yl)phenyl)-1-((R)-3-(4-fluoro-1-(3-methoxypropyl)-1H-benzo[d]imidazol-2-yl)piperidin-1-yl)butan-1-one] | > 7.00
4 | CC(C)[C@H](N)C(=O)N1CCCC(c2nc3ccccc3[nH]2)C1 (stereo partly drawn) [Compound 47, (2S)-1-(3-(1H-benzo[d]imidazol-2-yl)piperidin-1-yl)-2-amino-3-methylbutan-1-one] | < 6.00
5 | COCCCn1c([C@@H]2CCCN(C(=O)C[C@H](N)CNC(=O)Nc3ccc(Cl)c(Cl)c3)C2)nc2ccccc21 [Compound 255, 1-((S)-2-amino-4-((R)-3-(1-(3-methoxypropyl)-1H-benzo[d]imidazol-2-yl)piperidin-1-yl)-4-oxobutyl)-3-(3,4-dichlorophenyl)urea] | > 7.00
6 | COCCCn1c([C@@H]2CCCN(C(=O)C[C@H](N)Cc3ccc(-c4ccncc4)cc3)C2)nc2ccccc21 [Compound 126, (R)-3-amino-1-((R)-3-(1-(3-methoxypropyl)-1H-benzo[d]imidazol-2-yl)piperidin-1-yl)-4-(4-(pyridin-4-yl)phenyl)butan-1-one] | > 7.00
7 | COCCCn1c([C@@H]2CCCN(C(=O)C[C@H](N)Cc3ccc4ccccc4c3)C2)nc2cc(F)ccc21 [Compound 96, (R)-3-amino-1((R)-3-(5-fluoro-1-(3-methoxypropyl)-1H-benzo[d]imidazol-2-yl)piperidin-1-yl)-4-(naphthalen-2-yl)butan-1-one] | 6.00 to 7.00
8 | COCCCn1c([C@@H]2CCCN(C(=O)C[C@H](N)Cc3ccc(-c4ccc(C#N)cc4)cc3)C2)nc2ccccc21 [Compound 164, 4′-((R)-2-amino-4-((R)-3-(1-(3-methoxypropyl)-1H-benzo[d]imidazol-2-yl)piperidin-1-yl)-4-oxobutyl)biphenyl-4-carbonitrile] | > 7.00
9 | COCCCn1c([C@@H]2CCCN(C(=O)C[C@H](N)CNC(=O)c3ccc(-c4cc(Cl)ccc4Cl)o3)C2)nc2ccccc21 [Compound 276, N-((S)-2-amino-4-((R)-3-(1-(3-methoxypropyl)-1H-benzo[d]imidazol-2-yl)piperidin-1-yl)-4-oxobutyl)-5-(2,5-dichlorophenyl)furan-2-carboxamide] | 6.00 to 7.00
10 | COCCCn1c([C@@H]2CCCN(C(=O)C[C@H](N)Cc3ccc(-c4ccoc4)cc3)C2)nc2ccccc21 [Compound 145, (R)-3-amino-4-(4-(furan-3-yl)phenyl)-1-((R)-3-(1-(3-methoxypropyl)-1H-benzo[d]imidazol-2-yl)piperidin-1-yl)butan-1-one] | > 7.00
11 | N[C@@H](CC(=O)N1CCCC(c2nc3ccccc3[nH]2)C1)c1ccc(C(F)(F)F)cc1 (stereo partly drawn) [Compound 25, (3S)-1-(3-(1H-benzo[d]imidazol-2-yl)piperidin-1-yl)-3-amino-3-(4-(trifluoromethyl)phenyl)propan-1-one] | < 6.00
12 | COCCCn1c([C@@H]2CCCN(C(=O)C[C@H](N)Cc3ccc(-c4cn(C)c(=O)n(C)c4=O)cc3)C2)nc2ccccc21 [Compound 205, 5-(4-((R)-2-amino-4-((R)-3-(1-(3-methoxypropyl)-1H-benzo[d]imidazol-2-yl)piperidin-1-yl)-4-oxobutyl)phenyl)-1,3-dimethylpyrimidine-2,4(1H,3H)-dione] | > 7.00
13 | O=C(NCc1ccccc1)N1CCCC(c2nc3ccccc3[nH]2)C1 (stereo not shown) [Compound 3] | < 6.00
14 | COCCCn1c([C@@H]2CCCN(C(=O)C[C@H](N)Cc3ccc(-c4ccnc(F)c4)cc3)C2)nc2ccccc21 [Compound 150, (R)-3-amino-4-(4-(2-fluoropyridin-4-yl)phenyl)-1-((R)-3-(1-(3-methoxypropyl)-1H-benzo[d]imidazol-2-yl)piperidin-1-yl)butan-1-one] | > 7.00
15 | COCCCn1c(C2CCCN(C(=O)C[C@@H](N)c3ccccc3)C2)nc2ccccc21 (stereo partly drawn) [Compound 65, (3R)-3-amino-1-(3-(1-(3-methoxypropyl)-1H-benzo[d]imidazol-2-yl)piperidin-1-yl)-3-phenylpropan-1-one] | < 6.00
16 | COCCCn1c([C@@H]2CCCN(C(=O)[C@@H]3CN(c4ccc([N+](=O)[O-])cc4)C[C@H]3N)C2)nc2ccccc21 [Compound 508, ((3R,4S)-4-amino-1-(4-nitrophenyl)pyrrolidin-3-yl)((R)-3-(1-(3-methoxypropyl)-1H-benzo[d]limidazol-2-yl)piperidin-1-yl)methanone] | 6.00 to 7.00
17 | COCCCn1c([C@@H]2CCCN(C(=O)C[C@@H](N)COc3nc4ccccc4[nH]3)C2)nc2ccccc21 [Compound 434, (R)-4-(1H-benzo[d]imidazol-2-yloxy)-3-amino-1-((R)-3-(1-(3-methoxypropyl)-1H-benzo[d]imidazol-2-yl)piperidin-1-yl)butan-1-one] | 6.00 to 7.00
18 | N[C@H]1CCC[C@@H]1C(=O)N1CCCC(c2nc3ccccc3[nH]2)C1 (stereo partly drawn) [Compound 57, (3-(1H-benzo[d]imidazol-2-yl)piperidin-1-yl)((1S,2S)-2-aminocyclopentyl)methanone] | < 6.00
19 | COCCCn1c([C@@H]2CCCN(C(=O)C[C@H](N)Cc3ccc4ccccc4c3)C2)nc2cccc(OC)c21 [Compound 108, (R)-3-amino-1-((R)-3-(7-methoxy-1-(3-methoxypropyl)-1H-benzo[d]imidazol-2-yl)piperidin-1-yl)-4-(naphthalen-2-yl)butan-1-one] | 6.00 to 7.00
20 | COCCCn1c([C@@H]2CCCN(C(=O)[C@@H]3CN(S(=O)(=O)c4ccc(Cl)cc4)C[C@H]3N)C2)nc2ccccc21 [Compound 370, ((3R,4S)-4-amino-1-(4-chlorophenylsulfonyl)pyrrolidin-3-yl)((R)-3-(1-(3-methoxypropyl)-1H-benzo[d]imidazol-2-yl)piperidin-1-yl)methanone] | 6.00 to 7.00
21 | CC(=O)NCCn1c([C@@H]2CCCN(C(=O)C[C@H](N)Cc3ccc(-c4ccc5c(c4)OC(F)(F)O5)cc3)C2)nc2ccccc21 [Compound 448, N-(2-(2-((R)-1-((R)-3-amino-4-(4-(2,2-difluorobenzo[d][1,3]dioxol-5-yl)phenyl)butanoyl)piperidin-3-yl)-1H-benzo[d]imidazol-1-yl)ethyl)acetamide] | 6.00 to 7.00
22 | COc1ccc(-c2ccc(C[C@@H](N)CC(=O)N3CCC[C@@H](c4nc5ccccc5n4CCC(N)=O)C3)cc2)cc1 [Compound 487, 3-(2-((R)-1-((R)-3-amino-4-(4′-methoxybiphenyl-4-yl)butanoyl)piperidin-3-yl)-1H-benzo[d]imidazol-1-yl)propanamide] | 6.00 to 7.00
